Data: patent US20120136057A1, “HYDROXY FATTY ACID COMPOUNDS AND USES THEREOF FOR DISEASE TREATMENT AND DIAGNOSIS” (PHENOMENOME DISCOVERIES INC., priority 2009, published 2012)

Legend:
Format in all cases: cell-based, mouse
IL-1β = IL-1β protein by ELISA in LPS-stimulated RAW macrophage cells; conditions: RAW293 cells, 0.5 mM before LPS stimulation
Procedure: ELISA for mouse IL-1 beta: Raw cells were treated as described in real time PCR. 50 ul of conditioned medium or 100 ug of cell lysate was used to determine the amount of IL-1 beta as per manufactory's instruction (Cat. No. MLB00B, Quantikine)
(§1) The RAW293 mouse macrophage cell model system is commonly used to assess anti-inflammatory activity of compounds. The cells are treated with lipopolysaccharide which induces a massive inflammatory response, of which compounds can be tested for their ability to protect against. RAW293 cells were pretreated with hPULCFA-enriched extract followed by treatment with LPS for 24 hours after which mRNA transcript and protein levels of pro-inflammatory markers including the cytokines tumor necrosis factor alpha (TNFα) and interleukin-1 beta (IL-1β), iNOS as described above, cyclooxygenase 2 (COX2, the enzyme responsible for the production of pro-inflammatory eicosanoids from arachidonic acid) were assessed.

TNFα mRNA transcript = experiment: TNFα mRNA by quantitative real-time PCR in LPS-stimulated RAW macrophage cells; conditions: RAW264.7 cells, 500 uM (0.5 mM) before LPS stimulation
Procedure: Quantitative Real time PCR: RAW264.7 cells were seeded at 1×10^6/well in […] plate the day before the treatment. The following day, the cells were treated with different concentration of hPUCLFA(D046) or 1% FA/DMSO (DMSO) as vehicle control for 4 hours; each treatment was in duplicate; then stimulated with LPS at 1 μg/ml (cat. No. L4391, Sigma) for 20 hours. Total RNA was isolated from cell pellets using Trizol (Cat. No. 15596-018, Invitrogen) as per manufacturer's instruction. The RNA pellets were resuspended in 50 μL of DEPC treated water and stored at −80° C. RNA concentration and purity was determined by spectrophotometry at 260 and 280 nm. […]
as §1, with “The cells are treated with lipopolysaccharide which induces a massive inflammatory response, of which compounds can be tested for their ability to protect against.” left out

TNFα = TNFα protein by ELISA in LPS-stimulated RAW macrophage cells; conditions: RAW293 cells, 0.5 mM before LPS stimulation
Procedure: ELISA for mouse TNF alpha: Raw cells were treated as described in real time PCR. Conditioned medium was collected. Cells was briefly washed with ice cold PBS and lysed with lysis buffer (Jerry's recipe); Protein in the cell lysate was quantified using the Bio-Rad Protein Assay (Bio-Rad, Hercules, Calif.). 50 ul of conditioned medium or 100 ug of cell lysate per well was used to determine the amount of TNF alpha as per manufactory's instruction (Cat. No. KMC3011, Invitrogen).
as §1

For `CCCC(O)C/C=C\C(O)/C=C\C/C=C\C/C=C\C/C=C\CCCCCCCCC(=O)O` (stereo not drawn) [Compound D046-124], the “levels of IL-1β in conditioned media” value (IL-1β) was “completely blocked”, the “induction of TNFα transcripts” value (TNFα mRNA transcript) was “prevented the induction” and the “TNFα protein level in conditioned media” value (TNFα) was “prevented the induction”.
